Experimental data: patent US11230526B1, “Cylcoalkenyl derivatives useful as agonists of the GPR120 and/or GPR40 receptors” (Janssen Pharmaceutica NV, priority 2018, dated 2022)

target: T1, short form of the GPR120 receptor (Homo sapiens, UniProt Q5NUL3); assay: Human GPR120 DiscoveRx PathHunter Beta-Arrestin assay, Procedure β-arrestin B; format: cell-based
T1 construct: host or cells: PathHunter CHO-K1 GPR120S β-Arrestin Cell Line
Excerpt: Human GPR120 DiscoveRx PathHunter® Beta-Arrestin Assay Assay Principle:
The binding of an agonist (medium/long chain fatty acids or small molecule agonists) to the G-protein-coupled receptor GPR120 activates phospholipase C, leading to release of intracellular Ca^+2 through the generation of inositol 1,4,5-trisphosphate (InsP3 or IP3). GPR120 activation can also trigger intracellular signaling via recruitment of Beta-Arrestin. In the present method, agonist-induced activation of the human GPR120 receptor is monitored through the use of PathHunter® CHO-K1 GPR120 Beta-Arrestin Cell Line engineered by DiscoveRx, as detailed below. The cell lines are designed to co-express both the ProLink/Enzyme Donor (PK)-tagged GPCR and the Enzyme […] (EA)-tagged Beta-Arrestin fusion proteins. Upon GPR120 receptor stimulation/activation, the EA-tagged Beta-Arrestin portion is translocated to the tagged receptor, where the two enzyme fragments are brought within close proximity. Under these conditions, these fragments can interact and form an active Beta-gal enzyme complex through Enzyme Fragment Complementation (EFC). This active Beta-gal complex can enzymatically hydrolyse the substrate to produce a detectable light signal; therefore, activation as a function of agonist concentration can be expressed as an EC50 value to determine relative compound activities. This in vitro assay therefore serves to assess compound agonist activity of the GPR120.
In Procedure β-arrestin B the cells used were PathHunter® CHO-K1 GPR120S β-Arrestin Cell Line, expressing the short form of the GPR120 receptor (Accession #[…]), with 5000 cells/well.
The selected CHO-K1 GPR120 β-Arrestin cells were cultured in Ham's F12 media supplemented with 10% fetal bovine serum (FBS), 1% Glutamine, 1×p/s, 800 μg/mL G418 and 300 μg/mL Hygromycin B (for selection). Cell stocks were maintained and grown in a sub-confluent state using standard cell culture procedures. The day before the experiment, the cells were harvested with non-enzymatic cell dissociation buffer and re-suspended in complete growth media at the desired concentration. A Corning 384-plate was then seeded with the proper number of cells in a volume of 25 μL, per well. The seeded plates were incubated overnight at 37° C.
On the day of the experiment, the Assay Buffer containing (a) HBSS with Ca^++ and Mg^++, (b) 20 mM HEPES, and (c) 0.1% BSA stabilizer (pH 7.4) was prepared. The growth medium was gently removed from the cell plates and 20 μL of Assay Buffer added to each well. The plate was then incubated at 37° C. for 60 min. Test compounds were serially diluted in Assay Buffer to desired concentrations (more particularly to one or more of the following μM concentrations: 25, 12.5, 6.25, 3.12, 1.56, 0.78, 0.39, 0.19, 0.10, 0.05, 0.02, 0.01). Five μL of compound dilution was then added to each well and the plate incubated at 37° C. for 90 min. The detection reagents were prepared according to the manufacture's instruction. Twelve μL of the detection reagents were added to each well and the plate incubated at room temperature for 60 min.
The plates were read on an EnVision instrument, using Protocol name: Luminescence, Plate type: 384 Costar, Measurement height: 3 mm, Measurement time: 1 s, Aperture: 384 Plate aperture. The % Activity relative to the positive control was calculated using the following equation:
The % Activity values were plotted versus the concentration of test compound and fitted to a sigmoidal dose-response curve with a Hill slope=1 (fixed value) using nonlinear regression with GraphPad Prism 5.0 to calculate the EC50 values. The Fitting Equation was: Y=Bottom+(Top-Bottom)/(1+10^((Log EC50−X)*HillSlope)), where X is the log of the concentration and Y is the response.

T1 sequence (Q5NUL3 whole entry): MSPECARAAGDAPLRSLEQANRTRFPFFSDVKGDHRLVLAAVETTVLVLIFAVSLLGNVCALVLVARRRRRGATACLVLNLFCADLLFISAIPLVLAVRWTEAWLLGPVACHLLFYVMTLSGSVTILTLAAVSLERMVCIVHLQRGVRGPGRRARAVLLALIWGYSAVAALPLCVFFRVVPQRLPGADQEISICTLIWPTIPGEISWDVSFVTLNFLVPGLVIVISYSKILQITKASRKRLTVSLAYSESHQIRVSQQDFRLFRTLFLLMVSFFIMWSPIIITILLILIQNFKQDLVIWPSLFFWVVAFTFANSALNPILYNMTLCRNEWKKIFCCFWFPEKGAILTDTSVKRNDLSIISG
T1 sequence (P32121 whole entry partner): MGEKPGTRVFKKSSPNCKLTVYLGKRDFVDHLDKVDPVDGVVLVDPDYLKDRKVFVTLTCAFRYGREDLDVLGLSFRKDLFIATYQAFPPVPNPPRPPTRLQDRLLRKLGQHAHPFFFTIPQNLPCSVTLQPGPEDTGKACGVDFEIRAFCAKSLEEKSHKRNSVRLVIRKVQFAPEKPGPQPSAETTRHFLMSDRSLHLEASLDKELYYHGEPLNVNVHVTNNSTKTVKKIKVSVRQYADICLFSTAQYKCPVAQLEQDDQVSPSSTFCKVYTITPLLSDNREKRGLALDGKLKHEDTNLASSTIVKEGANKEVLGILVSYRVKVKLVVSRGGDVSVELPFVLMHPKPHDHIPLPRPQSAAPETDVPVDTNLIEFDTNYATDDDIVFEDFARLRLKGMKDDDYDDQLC

| EC50 | Structure (SMILES) |
| --- | --- |
| 235 nM | Cc1c(CCC(=O)O)ccc(OCC2=C(c3ccccc3F)CCC2)c1C [Compound 124, 3-[4-[[2-(2-fluorophenyl)cyclopenten-1-yl]methoxy]-2,3-dimethyl-phenyl]Propanoic Acid] |
| 352 nM | Cc1ccc(C2=C(COc3ccc(CCC(=O)O)c(C)c3C)CCCC2)cc1F [Compound 496, 3-[4-[[2-(3-fluoro-4-methyl-phenyl)cyclohexen-1-yl]methoxy]-2,3-dimethyl-phenyl]Propanoic Acid] |
| 1090 nM | Cc1ccc(C2=C(COc3ccc(CCC(=O)O)c(C)c3C)CCC2)c(C)c1 [Compound 82] |
| 324 nM | Cc1c(CCC(=O)O)ccc(OCC2=C(c3ccc(Cl)nc3)CCC2)c1C [Compound 158, 3-(4-((2-(6-chloropyridin-3-yl)cyclopent-1-en-1-yl)methoxy)-2,3-dimethylphenyl)Propanoic Acid] |
| 75 nM | Cc1ccc(C2=C(COc3ccc(CCC(=O)O)c(F)c3F)CCC2)cc1F [Compound 78, 3-(2,3-difluoro-4-((2-(3-fluoro-4-methylphenyl)cyclopent-1-en-1-yl)methoxy)phenyl)Propanoic Acid] |
| 1630 nM | COc1cc(F)cc(C2=C(COc3ccc(CCC(=O)O)c(C)c3C)CCC2)c1 [Compound 65, 3-[4-[[2-(3-fluoro-5-methoxy-phenyl)cyclopenten-1-yl]methoxy]-2,3-dimethyl-phenyl]Propanoic Acid] |
| 587 nM | Cc1ccc(C2=C(COc3ccc(CCC(=O)O)c(F)c3F)CCC2)cc1N [Compound 93, 3-(4-((2-(3-amino-4-methylphenyl)cyclopent-1-en-1-yl)methoxy)-2,3-difluorophenyl)Propanoic Acid] |
| 853 nM | Cc1ccc(C2=C(COc3ccc(CCC(=O)O)c(C)c3C)CCC2)cc1C [Compound 106, 3-(4-((2-(3,4-dimethylphenyl)cyclopent-1-en-1-yl)methoxy)-2,3-dimethylphenyl)Propanoic Acid] |
| 740 nM | Cc1ccc(C2=C(COc3ccc(CCC(=O)O)c(C)c3C)CCC2)cc1N [Compound 134, 3-(4-((2-(3-amino-4-methylphenyl)cyclopent-1-en-1-yl)methoxy)-2,3-dimethylphenyl)Propanoic Acid] |
| 1230 nM | COc1cccc(C2=C(COc3ccc(CCC(=O)O)c(C)c3C)CCC2)c1 [Compound 141, 3-[4-[[2-(3-methoxyphenyl)cyclopenten-1-yl]methoxy]-2,3-dimethyl-phenyl]Propanoic Acid] |
| 630 nM | Cc1ccc(C2=C(COc3ccc(CCC(=O)O)c(F)c3F)CCC2)cc1C [Compound 83, 3-(4-((2-(3,4-dimethylphenyl)cyclopent-1-en-1-yl)methoxy)-2,3-difluorophenyl)Propanoic Acid] |
| 76 nM | Cc1ccc(C2=C(COc3c(F)cc(CCC(=O)O)cc3F)CCC2)cc1 [Compound 95, 3-(3,5-difluoro-4-((2-(p-tolyl)cyclopent-1-en-1-yl)methoxy)phenyl)Propanoic Acid] |
| 137 nM | O=C(O)CCc1ccc(OCC2=C(c3ccc(Cl)cc3)CCCC2)c(F)c1F [Compound 513, 3-[4-[[2-(4-chlorophenyl)cyclohexen-1-yl]methoxy]-2,3-difluoro-phenyl]Propanoic Acid] |
| 1790 nM | Cc1c(CCC(=O)O)ccc(OCC2=C(c3cccc(Cl)c3)CCCC2)c1C [Compound 509, 3-[4-[[2-(3-chlorophenyl)cyclohexen-1-yl]methoxy]-2,3-dimethyl-phenyl]Propanoic Acid] |

More lines, now with the values behind:

| Structure (SMILES) | EC50 |
| --- | --- |
| Cc1c(CCC(=O)O)ccc(OCC2=C(c3ccc(Cl)cc3Cl)CCC2)c1C [Compound 133, 3-[4-[[2-(2,4-dichlorophenyl)cyclopenten-1-yl]methoxy]-2,3-dimethyl-phenyl]Propanoic Acid] | 1130 nM |
| Cc1cc(CCC(=O)O)ccc1OCC1=C(c2ccc(Cl)cc2)CCC(F)(F)C1 [Compound 467, 3-(4-((4′-chloro-4,4-difluoro-3,4,5,6-tetrahydro-[1,1′-biphenyl]-2-yl)methoxy)-3-methylphenyl)Propanoic Acid] | 104 nM |
| O=C(O)CCc1ccc(OCC2=C(c3ccc(Cl)cc3)CCCC2)c2c1CCC2 [Compound 514, 3-[7-[[2-(4-chlorophenyl)cyclohexen-1-yl]methoxy]indan-4-yl]Propanoic Acid] | 252 nM |
| CCc1ccc(C2=C(COc3c(F)cc(CCC(=O)O)cc3F)CCC2)cc1 [Compound 16, 3-(4-((2-(4-ethylphenyl)cyclopent-1-en-1-yl)methoxy)-3,5-difluorophenyl)Propanoic Acid] | 149 nM |
| Cc1c(CCC(=O)O)ccc(OCC2=C(c3cccs3)CCC2)c1C [Compound 77, 3-[2,3-dimethyl-4-[[2-(2-thienyl)cyclopenten-1-yl]methoxy]phenyl]Propanoic Acid] | 369 nM |
| Cc1cc(OCC2=C(c3ccc(Cl)cc3)CCC2)ccc1CCC(=O)O [Compound 131, 3-[4-[[2-(4-chlorophenyl)cyclopenten-1-yl]methoxy]-2-methyl-phenyl]Propanoic Acid] | 566 nM |
| O=C(O)CCc1ccc(OCC2=C(c3ccc(Cl)cc3)CCC2)cc1F [Compound 47, 3-[4-[[2-(4-chlorophenyl)cyclopenten-1-yl]methoxy]-2-fluoro-phenyl]Propanoic Acid] | 273 nM |
| Cc1ccc(C2=C(COc3ccc(CCC(=O)O)cc3C)CCC2)cn1 [Compound 102, 3-(3-methyl-4-((2-(6-methylpyridin-3-yl)cyclopent-1-en-1-yl)methoxy)phenyl)Propanoic Acid] | 365 nM |
| Cc1c(CCC(=O)O)ccc(OCC2=C(c3ncccn3)CCC2)c1C [Compound 105, 3-[2,3-dimethyl-4-[(2-pyrimidin-2-ylcyclopenten-1-yl)methoxy]phenyl]Propanoic Acid] | 445 nM |
| Cc1c(CCC(=O)O)ccc(OCC2=C(c3ccccc3Br)CCC2)c1C [Compound 111, 3-[4-[[2-(2-bromophenyl)cyclopenten-1-yl]methoxy]-2,3-dimethyl-phenyl]Propanoic Acid] | 2710 nM |
| Cc1ccc(C2=C(COc3c(F)cc(CCC(=O)O)cc3F)CCC2)cc1[N+](=O)[O-] [Compound 109, 3-(3,5-difluoro-4-((2-(4-methyl-3-nitrophenyl)cyclopent-1-en-1-yl)methoxy)phenyl)Propanoic Acid] | 2460 nM |
| O=C(O)CCc1ccc(OCC2=C(c3ccc(Cl)cc3)CCC2)cc1 [Compound 153, 3-[4-[[2-(4-chlorophenyl)cyclopenten-1-yl]methoxy]phenyl]Propanoic Acid] | 93 nM |
| Cc1c(CCC(=O)O)ccc(OCC2=C(c3ccc(N(C)C)cc3)CCCC2)c1C [Compound 512, 3-[4-[[2-(4-dimethylaminophenyl)cyclohexen-1-yl]methoxy]-2,3-dimethyl-phenyl]Propanoic Acid] | 803 nM |
| Cc1ccc(C2=C(COc3c(F)cc(CCC(=O)O)cc3F)CCCC2)cc1F [Compound 493, 3-[3,5-difluoro-4-[[2-(3-fluoro-4-methyl-phenyl)cyclohexen-1-yl]methoxy]phenyl]Propanoic Acid] | 356 nM |
| Cc1c(CCC(=O)O)ccc(OCC2=C(c3cccnc3)CCC2)c1C [Compound 108, 3-[2,3-dimethyl-4-[[2-(3-pyridyl)cyclopenten-1-yl]methoxy]phenyl]Propanoic Acid] | 807 nM |
| Cc1c(CCC(=O)O)ccc(OCC2=C(c3cncs3)CCC2)c1C [Compound 88, 3-[2,3-dimethyl-4-[(2-thiazol-5-ylcyclopenten-1-yl)methoxy]phenyl]Propanoic Acid] | 588 nM |
| O=C(O)CCc1ccc(OCC2=C(c3ccc(Cl)cc3)CCCC2)c(F)c1 [Compound 511, 3-[4-[[2-(4-chlorophenyl)cyclohexen-1-yl]methoxy]-3-fluoro-phenyl]Propanoic Acid] | 187 nM |
